Source: patent US20250101063A1, “POLYPEPTIDE COMPOUND AND USE THEREOF IN TREATMENT OF ENTERITIS” (Sichuan Gooddoctor Panxi Pharmaceutical Co., Ltd., priority 2022, published 2025)
Entries after “also recorded” stand apart in the source; their conditions may differ. Where no end group is shown, it is not given here.

Legend:
[1] = system: zebrafish model of intestinal mucosal injury; assay: Efficacy in relieving colitis: intestinal lumen area in TNBS-treated zebrafish; type: in vivo; settings: for Intestinal lumen area (pixels, mean ± SE): 2 days after TNBS, n = 10; for Activity in relieving intestinal lumen dilatation: 1000 μg/mL, significance vs model control group of the same batch; for Intestinal lumen area compared with the model control group (in words): 250, 500, 1000 μg/mL, Table 4
Method: Experimental animals: Wild-type AB strain zebrafishes, bred by natural pair mating. Zebrafishes aged 3 days post fertilization (3 dpf). Zebrafishes were kept in fish farming water at 28° C. (water quality: 200 mg of instant sea salt in each 1L of reverse osmosis water, with the conductivity of 450-550 μS/cm; pH of 6.5-8.5; and hardness of 50-100 mg/L CaCO3), the experimental animal use license number is: SYXK (Zhe) 2012-0171, and the breeding management met the requirements of the international AAALAC certification (certification number: 001458).
(1) Grouping: Polypeptide group: prepared into a stock solution of 20.0 mg/mL with ultrapure water and stored at −20° C.
Positive control group: prednisone, as white powder, with batch number C10016501, Shanghai Macklin Biochemical Technology Co., Ltd., stored at 4° C.; prepared into a 15.0 mg/mL stock solution with DMSO, and stored in aliquots at −20° C.
Normal control group and model control group.
(2) Experimental method: 3 dpf wild-type AB strain zebrafishes were randomly selected and placed in a 6-well plate, with 30 zebrafishes in each well (experimental group). Except for the normal control group, all other experimental groups were given TNBS in water to establish the zebrafish model of intestinal mucosal injury. After 2 days of treatment at 28° C., TNBS was removed, and polypeptide compound in water (at concentrations shown in Table 4) was given respectively, and for the positive control, prednisone was 15.0 μg/mL. A normal control group (healthy group) and a model control group (intestinal mucosal injury group) were set up at the same time. The capacity of each well (experimental group) was 3 mL. After 2 days of treatment at 28° C., 10 zebrafishes were randomly selected from each experimental group and photographed under a dissecting microscope. NIS-Elements D 3.20 advanced image processing software was used to analyze and collect data, and the intestinal lumen area of the zebrafish was analyzed. The statistical analysis results of this indicator were used to evaluate the efficacy of the samples in relieving colitis. The statistics results were expressed as mean±SE. SPSS26.0 software was used for statistical analysis, and p<0.05 indicates statistically significant difference.
The concentration gradient of the test substances set in this experimental system was 250 μg/mL, 500 μg/mL, and 1000 μg/mL. […] When the concentration of the test substance was further increased for intervention, the death phenomenon of zebrafishes was found in the group; therefore, in the subsequent rounds of activity evaluation, each test polypeptide compound was uniformly administered at 1000 μg/mL for intervention.

[2] = system: TNBS-induced model of acute inflammatory bowel disease (UC) in SD rat; assay: TNBS-induced model of acute inflammatory bowel disease (UC) in SD rat; type: in vivo; settings: for Body weight, Grouping day (D 0, g): D 0, before treatment; for Body weight, Grouping day (D 0, g) / DAI score, Experimental day 1 (D 1, point) / DAI score, Experimental day 3 (D 3, point) / Body weight, Experimental day 5 (D 5, g): enema once a day; for Body weight, Grouping day (D 0, g) / DAI score AUC(0-14 d) (D 0-D 14) / Weight change range (D 0-D 14, %) / DAI score, Experimental day 1 (D 1, point) / DAI score, Experimental day 3 (D 3, point) / Body weight, Experimental day 5 (D 5, g) / Body weight, Experimental endpoint (D 14, g) / DAI score, Experimental endpoint (D 14, point) / Colon length (cm) / Colon ulcer and inflammation score (point) / Colon ulcer area (cm^2) / Colon weight / Colon weight/length ratio (100* g/cm) / Colonic adhesion score (point): mean ± SD; for DAI score AUC(0-14 d) (D 0-D 14) / Weight change range (D 0-D 14, %) / Body weight, Experimental endpoint (D 14, g) / DAI score, Experimental endpoint (D 14, point) / Colon length (cm) / Colon ulcer and inflammation score (point) / Colon ulcer area (cm^2) / Colon weight / Colon weight/length ratio (100* g/cm) / Colonic adhesion score (point) / Effect on disease progression of ulcerative colitis / DAI scores (in words) / Effect on weight gain inhibition / weight loss response of model animals (in words): enema once a day 14 days; for Colon length (cm) / Colon ulcer and inflammation score (point) / Colon ulcer area (cm^2) / Colon weight / Colon weight/length ratio (100* g/cm) / Colonic adhesion score (point) / Effect on colon atrophy process / colon weight/length ratio (in words) / Effect on gross colon injury status (colonic adhesion, ulcer and inflammation) and colon ulcer area (in words): experimental endpoint; for Overall therapeutic effect in the rat model of ulcerative colitis (in words) / Effect on disease progression of ulcerative colitis / DAI scores (in words) / Effect on weight gain inhibition / weight loss response of model animals (in words) / Effect on colon atrophy process / colon weight/length ratio (in words) / Effect on gross colon injury status (colonic adhesion, ulcer and inflammation) and colon ulcer area (in words): set treatment regimen; for Effect on disease progression of ulcerative colitis / DAI scores (in words) / Effect on weight gain inhibition / weight loss response of model animals (in words) / Effect on colon atrophy process / colon weight/length ratio (in words) / Effect on gross colon injury status (colonic adhesion, ulcer and inflammation) and colon ulcer area (in words): vs model control group
Excerpt: In this experiment, a rat model of ulcerative colitis was established by administering trinitrobenzene sulfonic acid (TNBS) to laboratory animal male SD rats for a single enema intervention. Acute colitis in rats induced by trinitrobenzene sulfonic acid (TNBS) is an immune response induced by cytokines secreted by Th1 type cells. […] This model is simple to establish and has good reproducibility. It is an experimental animal model widely used in evaluating drugs for the treatment of inflammatory bowel disease. […] During the experimental treatment period (D1-D14), the body weight and general clinical observation indicators (including but not limited to food intake, water intake, activity level and defecation, etc.) of the animals in each experimental group were dynamically collected. At the same time, based on the relevant scoring standards for the disease activity index of ulcerative colitis, the reactivity such as the weight loss degree, stool morphology and trait, and bloody stool of the animals in each experimental group after TNBS induction were scored, and the disease activity index (DAI) of ulcerative colitis was calculated, once a day for 14 consecutive days. At the end point of the experiment, colon tissues of animals in each experimental group were collected, and the length and weight of the colon were measured and then the non-autopsy images were collected. Then the colon was cut open along the intestinal wall longitudinally and autopsy images were collected. Based on the “Criteria for Scoring Gross Morphological Manifestations of the Colon”, the gross damage with respect to colon adhesions, colon ulcers and inflammation of animals in each experimental group was observed and scored. Ulcer images were collected under a stereomicroscope and the area of colon ulcer foci was calculated, followed by routine fixation.

[3] = high dose group (compound 1: 6.0 mg/kg; compound 6: 2.8 mg/kg)
[4] = low dose group (compound 1: 3.0 mg/kg; compound 6: 1.4 mg/kg)

Row | Substance | Intestinal lumen area (pixels, mean ± SE) ([1]; 250 μg/mL in water) | Intestinal lumen area (pixels, mean ± SE) ([1]; 500 μg/mL in water) | Intestinal lumen area (pixels, mean ± SE) ([1]; 1000 μg/mL in water) | Activity in relieving intestinal lumen dilatation [1] | Intestinal lumen area compared with the model control group (in words) [1] | Body weight, Grouping day (D 0, g) [2, 3] | Body weight, Grouping day (D 0, g) [2, 4] | DAI score AUC(0-14 d) (D 0-D 14) [2, 3] | Weight change range (D 0-D 14, %) [2, 3] | DAI score AUC(0-14 d) (D 0-D 14) [2, 4] | Weight change range (D 0-D 14, %) [2, 4] | DAI score, Experimental day 1 (D 1, point) [2, 3] | DAI score, Experimental day 1 (D 1, point) [2, 4] | DAI score, Experimental day 3 (D 3, point) [2, 3] | DAI score, Experimental day 3 (D 3, point) [2, 4] | Body weight, Experimental day 5 (D 5, g) [2, 3] | Body weight, Experimental day 5 (D 5, g) [2, 4] | Body weight, Experimental endpoint (D 14, g) [2, 3] | DAI score, Experimental endpoint (D 14, point) [2, 3] | Body weight, Experimental endpoint (D 14, g) [2, 4] | other results
1 | EPVPQAK [Compound 6] | 53093 ± 3839 pixels | 45831 ± 3894 pixels | 28429 ± 3711 pixels | ** (** p < 0.01) | significant statistical differences compared with the model control group | 275.55 ± 7.92 g | 276.61 ± 9.81 g | 39.55 ± 3.99^####++++ | 1.50 ± 10.78% | 49.65 ± 3.95 | 0.48 ± 9.87% | 4.2 ± 0.8 point | 3.9 ± 0.9 point | 4.8 ± 1.0 point | 5.0 ± 1.7 point | 246.74 ± 22.76 g | 243.72 ± 22.18 g | 279.67 ± 30.93 g | 0.7 ± 1.2 point | 277.96 ± 29.18 g | DAI score, Experimental endpoint (D 14, point) [2, 4]: 1.3 ± 1.2 point; Colon length (cm) [2, 3]: 13.89 ± 1.60 cm; Colon ulcer and inflammation score (point) [2, 3]: 2.50 ± 1.43 point; Colon ulcer area (cm^2) [2, 3]: 3.66 ± 2.36^# cm^2; Colon weight [2, 3]: 2.41 ± 0.63 g; Colon weight/length ratio (100* g/cm) [2, 3]: 17.70 ± 5.71# 100* g/cm; Colonic adhesion score (point) [2, 3]: 1.30 ± 0.82 point; Colon length (cm) [2, 4]: 13.37 ± 1.40 cm; Colon ulcer and inflammation score (point) [2, 4]: 3.00 ± 0.94 point; Colon ulcer area (cm^2) [2, 4]: 3.46 ± 2.06^## cm^2; Colon weight [2, 4]: 2.23 ± 0.39 g; Colon weight/length ratio (100* g/cm) [2, 4]: 16.93 ± 3.87^## 100* g/cm; Colonic adhesion score (point) [2, 4]: 1.70 ± 0.67 point; Overall therapeutic effect in the rat model of ulcerative colitis (in words) [2]: significant therapeutic effects; Effect on disease progression of ulcerative colitis / DAI scores (in words) [2]: significant improvement effect on the disease progression of ulcerative colitis; Effect on weight gain inhibition / weight loss response of model animals (in words) [2]: no obvious improved therapeutic effect; also recorded: did not show a significant weight improvement effect; Effect on colon atrophy process / colon weight/length ratio (in words) [2]: colon weight/length ratio was significantly decreased; Effect on gross colon injury status (colonic adhesion, ulcer and inflammation) and colon ulcer area (in words) [2]: obvious therapeutic effects; also recorded: significant therapeutic effects on the gross damage manifestation of the colon
2 | H-KEPVPQAKPRKVAAQ-OH [Compound 1] | 39333 ± 2095 pixels | 26497 ± 1245 pixels | 26174 ± 1898 pixels | *** (*** p < 0.001) | significant statistical differences compared with the model control group | 279.99 ± 10.57 g | 274.40 ± 9.10 g | 30.65 ± 2.93^####+++ | 6.97 ± 4.73 % | 37.65 ± 3.60 | 7.96 ± 7.32 % | 3.9 ± 0.6 point | 3.5 ± 1.3 point | 4.3 ± 1.8 point | 4.9 ± 1.6 point | 263.90 ± 15.38 g | 251.65 ± 18.30 g | 299.37 ± 14.64 g | 0.1 ± 0.3 point | 296.07 ± 19.58 g | DAI score, Experimental endpoint (D 14, point) [2, 4]: 0.5 ± 0.7 point; Colon length (cm) [2, 3]: 16.55 ± 1.67 cm; Colon ulcer and inflammation score (point) [2, 3]: 1.40 ± 0.84^####++ point; Colon ulcer area (cm^2) [2, 3]: 2.15 ± 0.74^###+ cm^2; Colon weight [2, 3]: 2.20 ± 0.28 g; Colon weight/length ratio (100* g/cm) [2, 3]: 13.37 ± 1.93^####+ 100* g/cm; Colonic adhesion score (point) [2, 3]: 0.60 ± 0.52 point; Colon length (cm) [2, 4]: 15.34 ± 1.99 cm; Colon ulcer and inflammation score (point) [2, 4]: 2.50 ± 0.85 point; Colon ulcer area (cm^2) [2, 4]: 3.77 ± 1.91^# cm^2; Colon weight [2, 4]: 2.48 ± 0.46 g; Colon weight/length ratio (100* g/cm) [2, 4]: 16.40 ± 3.29^### 100* g/cm; Colonic adhesion score (point) [2, 4]: 1.10 ± 0.57 point; Overall therapeutic effect in the rat model of ulcerative colitis (in words) [2]: significant therapeutic effects; Effect on disease progression of ulcerative colitis / DAI scores (in words) [2]: significant improvement effect on the disease progression of ulcerative colitis; Effect on weight gain inhibition / weight loss response of model animals (in words) [2]: significant effect of improving the weight gain inhibition; also recorded: significant improvement effect on the weight loss response; Effect on colon atrophy process / colon weight/length ratio (in words) [2]: colon weight/length ratio was significantly decreased; Effect on gross colon injury status (colonic adhesion, ulcer and inflammation) and colon ulcer area (in words) [2]: obvious therapeutic effects; also recorded: significant therapeutic effects on the gross damage manifestation of the colon
